Source: PubChem BioAssay (NCI)
Several values for one entry are separate records, joined by “and”; a condition that tells them apart may be missing. Identical values can stand only once.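 96-well plates; 48 h exposure; 5 concentrations. Endpoints by linear interpolation between flanking doses. Not reached: highest tested concentration assigned. GI50 marks 50% less growth. TGI: total growth inhibition.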

Legend:
Test in all cases: NCI-60 cell line screen, 48 h
OVCAR-5 ovarian = test system: OVCAR-5 ovarian
NCI/ADR-RES ovarian = test system: NCI/ADR-RES ovarian
BT-549 breast = test system: BT-549 breast
T-47D breast = test system: T-47D breast
RXF 393 renal = test system: RXF 393 renal
K-562 leukemia = test system: K-562 leukemia
SK-MEL-5 melanoma = test system: SK-MEL-5 melanoma
SF-539 CNS = test system: SF-539 CNS
SF-295 CNS = test system: SF-295 CNS
MDA-MB-435 = test system: MDA-MB-435

N#Cc1cccc(C2C3=C(COC3=O)N(CCO)c3cc4c(cc32)CCC4)c1 (configuration not stated)
GI50 (OVCAR-5 ovarian): 0.237 µM | TGI (OVCAR-5 ovarian): > 50 µM | GI50 (NCI/ADR-RES ovarian): 0.15 µM | TGI (NCI/ADR-RES ovarian): > 50 µM | GI50 (BT-549 breast): 0.182 µM | TGI (BT-549 breast): 5.35 µM | GI50 (T-47D breast): 0.271 µM | TGI (T-47D breast): > 50 µM | GI50 (RXF 393 renal): 0.119 µM | TGI (RXF 393 renal): > 50 µM | GI50 (K-562 leukemia): 0.0732 µM | TGI (K-562 leukemia): > 50 µM | GI50 (SK-MEL-5 melanoma): 0.146 µM | TGI (SK-MEL-5 melanoma): 2.87 µM | GI50 (SF-539 CNS): 0.112 µM | TGI (SF-539 CNS): 0.356 µM | GI50 (SF-295 CNS): 0.0716 µM | TGI (SF-295 CNS): > 50 µM | GI50 (MDA-MB-435): 0.0171 µM | TGI (MDA-MB-435): 0.0662 µM

Oc1c(I)cc(Cl)c2cccnc12
GI50 (OVCAR-5 ovarian): 6.43 µM and 13.2 µM | TGI (OVCAR-5 ovarian): 73.5 µM and 49.6 µM | GI50 (NCI/ADR-RES ovarian): 3.21 µM and 4.12 µM | TGI (NCI/ADR-RES ovarian): 36 µM and 45.7 µM | GI50 (BT-549 breast): 3.27 µM and 23.1 µM | TGI (BT-549 breast): 8.99 µM and 65.3 µM | GI50 (T-47D breast): 4.16 µM and 8.7 µM | TGI (T-47D breast): 28.7 µM and > 100 µM | GI50 (RXF 393 renal): 2.27 µM and 16.8 µM | GI50 (K-562 leukemia): 3.91 µM | TGI (K-562 leukemia): > 100 µM | GI50 (SK-MEL-5 melanoma): 1.83 µM and 4.12 µM | TGI (SK-MEL-5 melanoma): 4.23 µM and 16.1 µM | GI50 (SF-539 CNS): 3.31 µM and 24.3 µM | TGI (SF-539 CNS): 13.7 µM and 52.6 µM | GI50 (SF-295 CNS): 2.62 µM and 22.2 µM | GI50 (MDA-MB-435): 4.2 µM and 32.8 µM | TGI (MDA-MB-435): > 100 µM

O=[N+]([O-])c1ccc(/C=C\c2ccc3c(c2)OCO3)c([N+](=O)[O-])c1
TGI (OVCAR-5 ovarian): 35.5 µM | TGI (NCI/ADR-RES ovarian): 81.6 µM | TGI (BT-549 breast): 34.2 µM | TGI (T-47D breast): > 100 µM | TGI (RXF 393 renal): 7.76 µM | TGI (K-562 leukemia): 50.2 µM | TGI (SK-MEL-5 melanoma): 38.9 µM | TGI (SF-539 CNS): 39.1 µM | TGI (SF-295 CNS): 59.1 µM | TGI (MDA-MB-435): 22.1 µM

Cc1ccc(NC2=CC(=O)C(=O)c3ccccc32)c(C)c1
GI50 (OVCAR-5 ovarian): 6.66 µM | TGI (OVCAR-5 ovarian): 21.6 µM | GI50 (NCI/ADR-RES ovarian): 2.92 µM | TGI (NCI/ADR-RES ovarian): 11.8 µM | GI50 (BT-549 breast): 2.17 µM | TGI (BT-549 breast): 7.2 µM | GI50 (T-47D breast): 3.96 µM | TGI (T-47D breast): 25.2 µM | GI50 (RXF 393 renal): 9.59 µM | TGI (RXF 393 renal): 21.6 µM | GI50 (K-562 leukemia): 4.03 µM | TGI (K-562 leukemia): 29.4 µM | GI50 (SK-MEL-5 melanoma): 1.44 µM | TGI (SK-MEL-5 melanoma): 2.79 µM | GI50 (SF-539 CNS): 3.63 µM | TGI (SF-539 CNS): 13.2 µM | GI50 (SF-295 CNS): 1.68 µM | TGI (SF-295 CNS): 3.37 µM | GI50 (MDA-MB-435): 1.79 µM | TGI (MDA-MB-435): 3.48 µM

CN(C)c1ccc2c(c1)OC(N)=C(C#N)C2c1ccc2c(c1)CCCN2C (configuration not stated)
GI50 (OVCAR-5 ovarian): 59 µM | TGI (OVCAR-5 ovarian): > 100 µM | GI50 (NCI/ADR-RES ovarian): 1.12 µM | TGI (NCI/ADR-RES ovarian): 9.08 µM | GI50 (BT-549 breast): 2.03 µM | TGI (BT-549 breast): 13.2 µM | GI50 (T-47D breast): 11.7 µM | TGI (T-47D breast): 51.6 µM | GI50 (RXF 393 renal): 1.43 µM | TGI (RXF 393 renal): 5.58 µM | GI50 (K-562 leukemia): 0.493 µM | TGI (K-562 leukemia): > 100 µM | GI50 (SK-MEL-5 melanoma): 0.733 µM | TGI (SK-MEL-5 melanoma): 12.8 µM | GI50 (SF-539 CNS): 2.28 µM | TGI (SF-539 CNS): 8.16 µM | GI50 (SF-295 CNS): 0.708 µM | TGI (SF-295 CNS): 6.51 µM | GI50 (MDA-MB-435): 0.305 µM | TGI (MDA-MB-435): 1.28 µM

CCN(CC)Cc1cc(Nc2cc(C(F)(F)F)c(C#N)c3nc4ccccc4n23)ccc1O
GI50 (OVCAR-5 ovarian): 4.84 µM | TGI (OVCAR-5 ovarian): 23.4 µM | GI50 (NCI/ADR-RES ovarian): 2.64 µM | TGI (NCI/ADR-RES ovarian): 15.9 µM | GI50 (BT-549 breast): 2.36 µM | TGI (BT-549 breast): 8.75 µM | GI50 (T-47D breast): 0.452 µM | TGI (T-47D breast): 3.65 µM | GI50 (RXF 393 renal): 1.8 µM | TGI (RXF 393 renal): 5.81 µM | GI50 (K-562 leukemia): 3.1 µM | TGI (K-562 leukemia): > 100 µM | GI50 (SK-MEL-5 melanoma): 0.271 µM | TGI (SK-MEL-5 melanoma): 1.66 µM | GI50 (SF-539 CNS): 2.7 µM | TGI (SF-539 CNS): 11 µM | GI50 (SF-295 CNS): 1.2 µM | TGI (SF-295 CNS): 3.81 µM | GI50 (MDA-MB-435): 2.29 µM | TGI (MDA-MB-435): 13.5 µM

C=CC(C)(O)CCC1C(=C)C(O)CC2C(C)(C)CCCC12C (configuration not stated)
TGI (OVCAR-5 ovarian): 41.7 µM | TGI (NCI/ADR-RES ovarian): 41.1 µM | TGI (BT-549 breast): 32.4 µM | TGI (T-47D breast): 93.6 µM | TGI (RXF 393 renal): 29.5 µM | TGI (K-562 leukemia): 33.2 µM | TGI (SK-MEL-5 melanoma): 29.5 µM | TGI (SF-539 CNS): 31.7 µM | TGI (SF-295 CNS): 48 µM | TGI (MDA-MB-435): 41.8 µM

CC1=NN(c2nc(N)nc(/C=C\c3ccccc3)n2)C(C)(C)C1
GI50 (OVCAR-5 ovarian): 20.7 µM | TGI (OVCAR-5 ovarian): 36.5 µM | GI50 (NCI/ADR-RES ovarian): 3.75 µM | TGI (NCI/ADR-RES ovarian): 24.7 µM | GI50 (BT-549 breast): 5.09 µM | TGI (BT-549 breast): 19.1 µM | GI50 (T-47D breast): 2.5 µM | TGI (T-47D breast): 15.1 µM | GI50 (RXF 393 renal): 5.8 µM | TGI (RXF 393 renal): 20.1 µM | GI50 (K-562 leukemia): 3.98 µM | TGI (K-562 leukemia): 22.1 µM | GI50 (SK-MEL-5 melanoma): 16 µM | TGI (SK-MEL-5 melanoma): 32.3 µM | GI50 (SF-539 CNS): 6.25 µM | TGI (SF-539 CNS): 22.4 µM | GI50 (SF-295 CNS): 11.7 µM | TGI (SF-295 CNS): 30.5 µM | GI50 (MDA-MB-435): 1.97 µM | TGI (MDA-MB-435): 7.13 µM

CCc1c(C#N)c(SC(C(N)=O)c2ccccc2)nc(N2CCC(N)CC2)c1C#N (configuration not stated)
GI50 (OVCAR-5 ovarian): 15.5 µM | TGI (OVCAR-5 ovarian): 31.7 µM | GI50 (NCI/ADR-RES ovarian): > 100 µM | TGI (NCI/ADR-RES ovarian): > 100 µM | GI50 (BT-549 breast): 13.6 µM | TGI (BT-549 breast): 27.3 µM | GI50 (T-47D breast): 14.6 µM | TGI (T-47D breast): 31.8 µM | GI50 (RXF 393 renal): 10.4 µM | TGI (RXF 393 renal): 22.7 µM | GI50 (K-562 leukemia): 12.4 µM | TGI (K-562 leukemia): 28.6 µM | GI50 (SK-MEL-5 melanoma): 15.1 µM | TGI (SK-MEL-5 melanoma): 28.3 µM | GI50 (SF-539 CNS): 15.3 µM | TGI (SF-539 CNS): 28.9 µM | GI50 (SF-295 CNS): 14.8 µM | TGI (SF-295 CNS): 28.7 µM | GI50 (MDA-MB-435): 15.4 µM | TGI (MDA-MB-435): 29.6 µM

N=C(N)c1ccc(OCCCCCOc2ccc(C(=N)N)cc2)cc1
GI50 (OVCAR-5 ovarian): 34 µM | TGI (OVCAR-5 ovarian): > 50 µM and 78.3 µM and > 100 µM | GI50 (NCI/ADR-RES ovarian): 27.3 µM | TGI (NCI/ADR-RES ovarian): > 100 µM | GI50 (BT-549 breast): 6.65 µM and 3.41 µM and 11.1 µM | TGI (BT-549 breast): 14.1 µM and 16 µM and 25.3 µM | GI50 (T-47D breast): 1.14 µM | TGI (T-47D breast): 13.3 µM and 37.7 µM and > 100 µM | GI50 (RXF 393 renal): 6.75 µM | TGI (RXF 393 renal): 17.5 µM and 38.6 µM | GI50 (K-562 leukemia): 2.8 µM | TGI (K-562 leukemia): 32.7 µM and 15.4 µM and > 100 µM | GI50 (SK-MEL-5 melanoma): 1.02 µM and 2.29 µM and 10.1 µM | TGI (SK-MEL-5 melanoma): 3.33 µM and 11.7 µM and 29.5 µM | GI50 (SF-539 CNS): 8.36 µM | TGI (SF-539 CNS): 20.7 µM and 27.1 µM | TGI (SF-295 CNS): 19.7 µM and 21.3 µM and 77.1 µM | GI50 (MDA-MB-435): 3.99 µM | TGI (MDA-MB-435): 13.4 µM and 23.2 µM and 42.9 µM
